Legend:
[1] = tested on: cyclin D1; test: Gene array (microarray) analysis of cyclin D1 expression; format: cell-based, human; conditions: PC3 cells, 2 μg/ml, 2 days
Protocol: FIGS. 2A-2D. Mahanine down-regulates cyclin D1 expression in prostate and other cancer cells. FIG. 2A: Microarray analyses showing PC3 cells treated with (2 μg/ml) mahanine (+) or vehicle (−) for 2 days and RNA was extracted and microarray analysis was performed. FIG. 2B and FIG. 2C: PC3 (left panel) and LNCaP (right panel) cells were treated with 0, 1, 2 and 3 μg/ml mahanine for 3 days. RNA was extracted, and RT-PCR assays were performed to detect cyclin D1 and GAPDH mRNAs. Representative photograph from an experiment that was repeated thrice. Quantitative estimations of relative levels of cyclin D1 mRNAs (lower panel) were determined by densitometric measurements of RT-PCR gels from three independent experiments after normalization with GAPDH. […]
Microarray analysis: Total RNA was isolated from […] cells treated with or without mahanine using TRIZOL reagent (Invitrogen Corp., Carlsbad, Calif.). […] RNA was evaluated by electrophoresis before continuing with probe synthesis and hybridization. […] Following repetitive washing in saline-sodium citrate/SDS, hybridized cDNA probes were detected by chemiluminescence. […] Bound biotinylated cDNA probe was detected with alkaline phosphatase-conjugated streptavidin and CDP-Star chemiluminescent substrate (SuperArray). […]

[2] = tested on: cyclin A1; test: RT-PCR of cyclin A1 mRNA in prostate cancer cells; format: cell-based, human; conditions: PC3 or LNCaP cells, mahanine treatment
[3] = tested on: cyclin E1; test: RT-PCR of cyclin E1 mRNA in prostate cancer cells; format: cell-based, human; conditions: PC3 or LNCaP cells, mahanine treatment
Protocol: FIG. 5. RASSF1A down-regulates cyclin D1 expression in prostate cancer cells but not other cyclins. […] RNA was extracted, and RT-PCR assays were performed to detect RASSF1A, cyclin A1, B1, D1, E1 and GAPDH mRNAs. Representative photograph from an experiment that was repeated thrice. Quantitative estimations of relative levels of cyclin D1 and RASSF1A mRNAs were determined by densitometric measurements of RT-PCR gels from three independent experiments after normalization with GAPDH.
Genes of interest were amplified using 500 ng of total RNA reverse-transcribed to cDNA using a Superscript II kit (Invitrogen) with random hexamers. Human-specific primers were designed using the Primer Quest program and purchased from Integrated DNA Technologies, Inc (Coralville, Iowa). […] After amplification, PCR products were separated on 1.5% agarose gels and visualized by ethidium bromide fluorescence using the Fuji LAS-1000 Imager. […] Band intensities were quantified by using ImageJ software (NIH, Bethesda, Md.).

[4] = tested on: LNCaP cells; test: Flow cytometric cell cycle analysis, LNCaP; format: cell-based, human; conditions: mahanine 3 days
Protocol: FIG. 4A-4B. Mahanine arrests prostate cancer cells at G0/G1 phase of cell cycle. To determine if down-regulation of cyclin D1 by mahanine treatments affect cell cycle, PC3 4(A) and LNCaP 4(B) cells were treated with 0, 1 and 2 μg/ml mahanine for 3 days. After treatment, flow cytometric analyses were performed. The percentage of cells in the G0/G1, S and G2/M-phase of the cell cycle were shown on right. FACS analysis of PC3 and LNCaP prostate cancer cells with vehicle or 2 μg/ml mahanine are shown in the left panel. Values are the mean from two independent experiments in duplicates.
Since cyclin D1 regulates cell cycle progression at the G0/G1 phase, Aplicants examined the cell cycle profile of PC3 and LNCaP cells in the presence of various concentrations of mahanine.

[5] = tested on: caspase-3; conditions: PC3 cells; cited from earlier work

CC(C)=CCC[C@@]1(C)C=Cc2c(c(C)cc3c2[nH]c2cc(O)ccc23)O1 [mahanine]
cyclin D1 expression (gene array) [1]: down-regulated the expression of cyclin D1
cyclin A1 expression (RT-PCR) [2]: did not alter the expression
cyclin E1 expression (RT-PCR) [3]: did not alter the expression
cells in S-phase ([4]; decreased from 25.6% (control)): 6.1%
cells in G0/G1 phase ([4]; increased from 63.7% (control)): 90.7%
caspase-3 cleavage and activation [5]: greatly increased caspase-3 cleavage and activation

From patent publication US20100130579A1, “CANCER THERAPY” (Georgetown University, priority 2006, published 2010)
